From paper PMC11550005, “On the function of TRAP substrate-binding proteins: Conformational variation of the sialic acid binding protein SiaP” (The Journal of Biological Chemistry, 2024) come the findings set out here.

For experiment [1], the target named is T1, AaSiaP (TRAP N-acetylneuraminate substrate-binding protein SiaP) (Aggregatibacter actinomycetemcomitans, UniProt A0A5D0EK58). Put plainly: microscale thermophoresis; also crystal structure ([…] A), DSF, SAXS. Also noted: gene ACT75_01630; mature chain without native signal peptide (replaced by pelB), residual N-terminal Met-Asp; strain 624, WP_005538762.1. (Microscale thermophoresis detects binding through changes in fluorescence in a small temperature gradient.)

Experiment [2] has as its target T1, AaSiaP (TRAP N-acetylneuraminate substrate-binding protein SiaP). The experiment in a line: microscale thermophoresis. On the set-up: gene ACT75_01630; mature chain without native signal peptide (replaced by pelB), residual N-terminal Met-Asp; strain 624, WP_005538762.1.
Experiment [3] has the same target. On the set-up: gene ACT75_01630.

T1 sequence (A0A5D0EK58 entry or part of it): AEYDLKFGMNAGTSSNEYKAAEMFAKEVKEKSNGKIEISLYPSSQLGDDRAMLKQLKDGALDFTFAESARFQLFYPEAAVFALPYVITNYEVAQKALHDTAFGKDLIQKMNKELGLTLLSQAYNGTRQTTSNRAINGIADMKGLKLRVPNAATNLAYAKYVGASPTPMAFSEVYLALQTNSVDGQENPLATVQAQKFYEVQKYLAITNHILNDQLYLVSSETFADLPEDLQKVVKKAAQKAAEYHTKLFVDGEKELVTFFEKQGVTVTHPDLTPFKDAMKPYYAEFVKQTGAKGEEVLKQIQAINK

In experiment [1], `CC(=O)N[C@H]1[C@H]([C@H](O)[C@H](O)CO)O[C@](O)(C(=O)O)C[C@@H]1O` [Neu5Ac, N-acetylneuraminate] showed a Kd of 430 nM.

The compound `O=C(CO)N[C@H]1[C@H]([C@H](O)[C@H](O)CO)O[C@@](O)(C(=O)O)C[C@@H]1O` [Neu5Gc, N-glycolylneuraminate] gave a Kd in experiment [2] of 4400 nM.

`CC(=O)O` [acetate]: the “crystal structure (2.58 A, chains A and B); acetate from the crystallization cond” value in experiment [3] is “Acetate makes favorable interactions with residues R127, R147, and N189 on domain II within the binding site of AaSiaP”.

As usually defined, the Kd is the free concentration of one partner at which half of the binding sites on the other are occupied at equilibrium, for simple one-to-one binding. A high value points to weaker binding.
